Measured values published in patent US5045543A, “5-amino or substituted amino 1,2,3-triazoles useful as antimetastatic agents” (Merck & Co., Inc., priority 1989, dated 1991).
Entries after “also recorded” stand apart in the source; their conditions may differ.

What was measured:
[1] = system: nucleotide pools in mammalian cells; test: Inhibition of nucleotide biosynthesis: incorporation of hypoxanthine, adenine, formate into nucleotide pools of mammalian cells; type: cell-based; conditions: 1 μg/ml
PRPP synthetase [2] = test: PRPP synthetase activity / PRPP biosynthesis in cell based experiments
PRPP synthetase [3] = test: Direct inhibition of PRPP synthetase in vitro; type: biochemical; conditions: in vitro studies
Normal Human Fibroblasts = test: Inhibition of fibroblast growth; type: cell-based; conditions: for inhibition at 0.1 µg/mL / inhibition at 0.2 µg/mL / inhibition at 0.4 µg/mL / inhibition at 1 µg/mL / inhibition at 2 µg/mL: Homo sapiens, Fibroblast
Description: (§1) The inhibition of PRPP biosynthesis by Compound A and analogs supported the claimed use of the compounds as antiproliferative agents, since this inhibition should prevent all de novo and salvage biosynthesis of purine and pyrimidine nucleotides. […] The data from NHEK's is particularly important since it is the overproliferation of these cells that occurs in psoriasis.
(§2) In these experiments Murine keratinocyte transformed cell line PAPp26 was cultured in Dulbecco's modified Eagle's medium with 10% fetal calf serum at 37° C., 5% CO2. Each well of a 96 well plate was seeded with 2000 cells in 200 μl of each drug dilution in duplicate. A plate was stopped and fixed for each time point, stained with Giemsa and then read in a Titertek plate reader at 650 nm, and the absorbances were calibrated with known cell numbers on control plates. NHEK's were obtained from Clonetics Corporation at the secondary stage. Antiproliferative assays were done as for the murine keratinocytes. Media (KGM) without serum was supplied by Clonetics also. Normal Human Fibroblasts and MDBK cells were grown under the same conditions except that MDBK cells were grown at 41° C.

MDBK cells = test: Inhibition of the growth of MDBK cells; type: cell-based, Bovine; conditions: for inhibition at 1 µg/mL / inhibition at 2 µg/mL: Bos taurus, MDBK
Description: as §1, §2

[4] = system: a number of cell types including the Normal Human Epidermal Keratinocytes; test: Antiproliferative activity (general statements); type: cell-based; conditions: in vitro; Compound A at the same concentrations (1 μg/ml)
rat PMN's = test: Eicosanoid production in rat PMN's; type: cell-based; conditions: 1 μg/ml
LTA4 hydrolase = test: Direct inhibition of LTA4 hydrolase; type: biochemical
P388 leukemia = test: Life prolongation assay, P388 leukemia in nude mice; type: in vivo; conditions: for life prolongation: control survival 15 to 20 days
Description: (§3) The topical antiproliferative activities, along with in vitro antiproliferative activities against human keratinocytes and fibroblasts, provide the biological data in support of the claimed utility:
The doses used were 240, 120 and 60 mg/kg delivered i.p. once per day for five days.

[5] = system: pig skin epidermal basal cells (keratinocytes); test: UV induced hyperproliferation in pig skin in vivo (topical antiproliferative activity); conditions: for effect on uv induced hyperproliferation: daily topical application; for LI (labelling index): uv exposed Gel #1 control 20.8, normal 7.6
Description: as §3
In one experiment, a 20 kg pig was sedated and multiple areas of clipped skin were exposed to uv radiation sufficient to provoke a moderate hyperproliferative response within several days of exposure. On days 0, 1, 2 and 3 replicate irradiated sites were treated topically with Compound A in several vehicles or solvents. Topical preparations included a 2% drug in Gel #1, a combination of isopropyl myristate:Crodamol:ethanol, 1:1:2, or DMSO. The hyperproliferative response of the skin to uv was assessed on day 4 by injecting ^3 H-thymidine intradermally, and, 1 hour later, removing the sites by punch biopsy and processing the samples for autoradiography. Such autoradiographs indicate the number of epidermal cells in S phase synthesizing DNA and this is a common tool used by dermatologists to assess inhibition of proliferation in vivo. A single injection of methotrexate, 4 hours prior to ^3 H-thymidine injection was used as a positive control for inhibition of DNA synthesis. A labelling index, L.I., which is the percent of the total number of epidermal basal cells (keratinocytes) counted showing label incorporation. Four days after exposure to uv, the L.I. of pig skin increased from 7.6% to 20.8% (normal human skin ca. 2%, psoriatic lesions ca. 25%, for comparison).

NC(=O)c1nnn(Cc2cc(Cl)c(C(=O)c3ccc(Cl)cc3)c(Cl)c2)c1N [Compound A, 5-amino-1-(4-(4-chlorobenzoyl)-3,5-dichlorobenzyl)-1,2,3-triazole-4-carboxamide]
adenine incorporation into nucleotide pools ([1]; mammalian cells): disrupted
formate incorporation into nucleotide pools ([1]; mammalian cells): disrupted
hypoxanthine incorporation into nucleotide pools ([1]; mammalian cells): disrupted
inhibition of nucleotide biosynthesis ([1]; variety of mammalian cells in monolayer culture): efficacy
PRPP synthetase activity (PRPP synthetase [2]): dramatically lowered
direct inhibition of PRPP synthetase (PRPP synthetase [3]): no direct inhibition of the enzyme occurred
Fibroblast growth, No. of Cells - seeding cells (Normal Human Fibroblasts; 0.1 μg/ml, 2 days, control 10.5 × 10^3): 4 × 10^3
Fibroblast growth, No. of Cells - seeding cells (Normal Human Fibroblasts; 0.1 μg/ml, 3 days, control 14 × 10^3): 5 × 10^3
Fibroblast growth, No. of Cells - seeding cells (Normal Human Fibroblasts; 0.1 μg/ml, 6 days, control 23 × 10^3): 19 × 10^3
Fibroblast growth, No. of Cells - seeding cells (Normal Human Fibroblasts; 0.2 μg/ml, 2 days, control 10.5 × 10^3): 5 × 10^3
Fibroblast growth, No. of Cells - seeding cells (Normal Human Fibroblasts; 0.2 μg/ml, 3 days, control 14 × 10^3): 2 × 10^3
Fibroblast growth, No. of Cells - seeding cells (Normal Human Fibroblasts; 0.2 μg/ml, 6 days, control 23 × 10^3): 16.5 × 10^3
Fibroblast growth, No. of Cells - seeding cells (Normal Human Fibroblasts; 0.4 μg/ml, 2 days, control 10.5 × 10^3): 7 × 10^3
Fibroblast growth, No. of Cells - seeding cells (Normal Human Fibroblasts; 0.4 μg/ml, 3 days, control 14 × 10^3): 6.5 × 10^3
Fibroblast growth, No. of Cells - seeding cells (Normal Human Fibroblasts; 0.4 μg/ml, 6 days, control 23 × 10^3): 13 × 10^3
Fibroblast growth, No. of Cells - seeding cells (Normal Human Fibroblasts; 1.0 μg/ml, 2 days, control 10.5 × 10^3): 2 × 10^3
Fibroblast growth, No. of Cells - seeding cells (Normal Human Fibroblasts; 1.0 μg/ml, 3 days, control 14 × 10^3): 0
Fibroblast growth, No. of Cells - seeding cells (Normal Human Fibroblasts; 1.0 μg/ml, 6 days, control 23 × 10^3): 6 × 10^3
Fibroblast growth, No. of Cells - seeding cells (Normal Human Fibroblasts; 2.0 μg/ml, 2 days, control 10.5 × 10^3): 2 × 10^3
Fibroblast growth, No. of Cells - seeding cells (Normal Human Fibroblasts; 2.0 μg/ml, 3 days, control 14 × 10^3): .5 × 10^3
Fibroblast growth, No. of Cells - seeding cells (Normal Human Fibroblasts; 2.0 μg/ml, 6 days, control 23 × 10^3): 4 × 10^3
inhibition at 0.1 µg/mL (Normal Human Fibroblasts; 48 h, 0.1 μg/ml, 2 days): 62%
inhibition at 0.2 µg/mL (Normal Human Fibroblasts; 48 h, 0.2 μg/ml, 2 days): 48%
inhibition at 0.4 µg/mL (Normal Human Fibroblasts; 48 h, 0.4 μg/ml, 2 days): 33%
inhibition at 1 µg/mL (Normal Human Fibroblasts; 48 h, 1.0 μg/ml, 2 days): 81%
inhibition at 2 µg/mL (Normal Human Fibroblasts; 48 h, 2.0 μg/ml, 2 days): 81%
inhibition at 0.1 µg/mL (Normal Human Fibroblasts; 72 h, 0.1 μg/ml, 3 days): 64%
inhibition at 0.2 µg/mL (Normal Human Fibroblasts; 72 h, 0.2 μg/ml, 3 days): 86%
inhibition at 0.4 µg/mL (Normal Human Fibroblasts; 72 h, 0.4 μg/ml, 3 days): 54%
inhibition at 1 µg/mL (Normal Human Fibroblasts; 72 h, 1.0 μg/ml, 3 days): 100%
inhibition at 2 µg/mL (Normal Human Fibroblasts; 72 h, 2.0 μg/ml, 3 days): 96%
inhibition at 0.1 µg/mL (Normal Human Fibroblasts; 144 h, 0.1 μg/ml, 6 days): 18%
inhibition at 0.2 µg/mL (Normal Human Fibroblasts; 144 h, 0.2 μg/ml, 6 days): 28%
inhibition at 0.4 µg/mL (Normal Human Fibroblasts; 144 h, 0.4 μg/ml, 6 days): 44%
inhibition at 1 µg/mL (Normal Human Fibroblasts; 144 h, 1.0 μg/ml, 6 days): 74%
inhibition at 2 µg/mL (Normal Human Fibroblasts; 144 h, 2.0 μg/ml, 6 days): 83%
inhibition of growth of Normal Human Fibroblasts (Normal Human Fibroblasts; approximately 1.0 μg/ml): substantial inhibition
MDBK growth, # Cells × 10^6 - # Cells Seeded (MDBK cells; 1.0 μg/ml, 1 day, control 1.40): 0 × 10^6
MDBK growth, # Cells × 10^6 - # Cells Seeded (MDBK cells; 1.0 μg/ml, 3 days, control 4.86): 3.12 × 10^6
MDBK growth, # Cells × 10^6 - # Cells Seeded (MDBK cells; 2.0 μg/ml, 1 day, control 1.40): 0 × 10^6
MDBK growth, # Cells × 10^6 - # Cells Seeded (MDBK cells; 2.0 μg/ml, 3 days, control 4.86): 0 × 10^6
inhibition at 1 µg/mL (MDBK cells; 24 h, 1.0 μg/ml, 1 day): 100%
inhibition at 2 µg/mL (MDBK cells; 24 h, 2.0 μg/ml, 1 day): 100%
inhibition at 1 µg/mL (MDBK cells; 72 h, 1.0 μg/ml, 3 days): 36%
inhibition at 2 µg/mL (MDBK cells; 72 h, 2.0 μg/ml, 3 days): 100%
inhibition of growth of MDBK cells (MDBK cells; approximately 1.0 μg/ml): substantial inhibition
antiproliferative activity [4]: antiproliferative at the same concentrations
inhibition of 5-HETE production (rat PMN's): inhibit
inhibition of HHT production (rat PMN's): inhibit
inhibition of LTB4 production (rat PMN's): inhibit
direct inhibition of LTA4 hydrolase (LTA4 hydrolase): no evidence of direct inhibition
life prolongation (P388 leukemia; 60 mg/kg i.p. once per day for five days): 127%
life prolongation (P388 leukemia; 120 mg/kg i.p. once per day for five days): 124%
life prolongation (P388 leukemia; 240 mg/kg i.p. once per day for five days): 134%
in vivo activity against P388 leukemia (P388 leukemia; 240, 120, 60 mg/kg i.p.): significant in vivo activity
minimal effective dose (P388 leukemia; Mus musculus, ip, P388 leukemia, nude mice, read-out: active dose in life prolongation assay): ≥ 60 mg/kg/day
inhibition of uv induced hyperproliferation in pig skin ([5]; 2% formulation in Gel #1, topical): inhibits completely
effect on uv induced hyperproliferation ([5]; Crodamol): less effective
effect on uv induced hyperproliferation ([5]; DMSO): no effect
effect on uv induced hyperproliferation ([5]; Gel #1): dramatically reduced the uv induced hyperproliferation
topical antiproliferative activity ([5]; effects dependent upon vehicle): active topically as an antiproliferative; also recorded: Topical activity against keratinocyte proliferation has been demonstrated
UV induced hyperproliferation, % Inhibition ([5]; topical, Crodamol): 29%
Labelled Cells ([5]; topical, Crodamol, of 963 basal cells counted): 165
LI (labelling index) ([5]; topical, Crodamol): 17.0%
UV induced hyperproliferation, % Inhibition ([5]; topical, DMSO): 0%
Labelled Cells ([5]; topical, DMSO, of 744 basal cells counted): 150
LI (labelling index) ([5]; topical, DMSO): 20.1%
UV induced hyperproliferation, % Inhibition ([5]; topical, Gel #1): 100%
inhibition of proliferation compared with injected methotrexate ([5]; topical, Gel #1): comparable to that for injected methotrexate
Labelled Cells ([5]; topical, Gel #1, of 1020 basal cells counted): 57
LI (labelling index) ([5]; topical, Gel #1): 5.6%
genotoxicity (Toxicity / genotoxicity): lack of toxicity or genotoxicity
toxicity (Toxicity / genotoxicity): lack of toxicity or genotoxicity
